{"source": "ChEMBL document CHEMBL5120836", "about": "“Discovery of novel 7,8-dihydropteridine-6(5H)-one-based DNA-PK inhibitors as potential anticancer agents via scaffold hopping strategy” (Eur J Med Chem, 2022)", "key": {"[1]": {"molecular_target": "DNA-dependent protein kinase catalytic subunit (Homo sapiens, UniProt P78527)", "sequence (P78527 whole entry)": "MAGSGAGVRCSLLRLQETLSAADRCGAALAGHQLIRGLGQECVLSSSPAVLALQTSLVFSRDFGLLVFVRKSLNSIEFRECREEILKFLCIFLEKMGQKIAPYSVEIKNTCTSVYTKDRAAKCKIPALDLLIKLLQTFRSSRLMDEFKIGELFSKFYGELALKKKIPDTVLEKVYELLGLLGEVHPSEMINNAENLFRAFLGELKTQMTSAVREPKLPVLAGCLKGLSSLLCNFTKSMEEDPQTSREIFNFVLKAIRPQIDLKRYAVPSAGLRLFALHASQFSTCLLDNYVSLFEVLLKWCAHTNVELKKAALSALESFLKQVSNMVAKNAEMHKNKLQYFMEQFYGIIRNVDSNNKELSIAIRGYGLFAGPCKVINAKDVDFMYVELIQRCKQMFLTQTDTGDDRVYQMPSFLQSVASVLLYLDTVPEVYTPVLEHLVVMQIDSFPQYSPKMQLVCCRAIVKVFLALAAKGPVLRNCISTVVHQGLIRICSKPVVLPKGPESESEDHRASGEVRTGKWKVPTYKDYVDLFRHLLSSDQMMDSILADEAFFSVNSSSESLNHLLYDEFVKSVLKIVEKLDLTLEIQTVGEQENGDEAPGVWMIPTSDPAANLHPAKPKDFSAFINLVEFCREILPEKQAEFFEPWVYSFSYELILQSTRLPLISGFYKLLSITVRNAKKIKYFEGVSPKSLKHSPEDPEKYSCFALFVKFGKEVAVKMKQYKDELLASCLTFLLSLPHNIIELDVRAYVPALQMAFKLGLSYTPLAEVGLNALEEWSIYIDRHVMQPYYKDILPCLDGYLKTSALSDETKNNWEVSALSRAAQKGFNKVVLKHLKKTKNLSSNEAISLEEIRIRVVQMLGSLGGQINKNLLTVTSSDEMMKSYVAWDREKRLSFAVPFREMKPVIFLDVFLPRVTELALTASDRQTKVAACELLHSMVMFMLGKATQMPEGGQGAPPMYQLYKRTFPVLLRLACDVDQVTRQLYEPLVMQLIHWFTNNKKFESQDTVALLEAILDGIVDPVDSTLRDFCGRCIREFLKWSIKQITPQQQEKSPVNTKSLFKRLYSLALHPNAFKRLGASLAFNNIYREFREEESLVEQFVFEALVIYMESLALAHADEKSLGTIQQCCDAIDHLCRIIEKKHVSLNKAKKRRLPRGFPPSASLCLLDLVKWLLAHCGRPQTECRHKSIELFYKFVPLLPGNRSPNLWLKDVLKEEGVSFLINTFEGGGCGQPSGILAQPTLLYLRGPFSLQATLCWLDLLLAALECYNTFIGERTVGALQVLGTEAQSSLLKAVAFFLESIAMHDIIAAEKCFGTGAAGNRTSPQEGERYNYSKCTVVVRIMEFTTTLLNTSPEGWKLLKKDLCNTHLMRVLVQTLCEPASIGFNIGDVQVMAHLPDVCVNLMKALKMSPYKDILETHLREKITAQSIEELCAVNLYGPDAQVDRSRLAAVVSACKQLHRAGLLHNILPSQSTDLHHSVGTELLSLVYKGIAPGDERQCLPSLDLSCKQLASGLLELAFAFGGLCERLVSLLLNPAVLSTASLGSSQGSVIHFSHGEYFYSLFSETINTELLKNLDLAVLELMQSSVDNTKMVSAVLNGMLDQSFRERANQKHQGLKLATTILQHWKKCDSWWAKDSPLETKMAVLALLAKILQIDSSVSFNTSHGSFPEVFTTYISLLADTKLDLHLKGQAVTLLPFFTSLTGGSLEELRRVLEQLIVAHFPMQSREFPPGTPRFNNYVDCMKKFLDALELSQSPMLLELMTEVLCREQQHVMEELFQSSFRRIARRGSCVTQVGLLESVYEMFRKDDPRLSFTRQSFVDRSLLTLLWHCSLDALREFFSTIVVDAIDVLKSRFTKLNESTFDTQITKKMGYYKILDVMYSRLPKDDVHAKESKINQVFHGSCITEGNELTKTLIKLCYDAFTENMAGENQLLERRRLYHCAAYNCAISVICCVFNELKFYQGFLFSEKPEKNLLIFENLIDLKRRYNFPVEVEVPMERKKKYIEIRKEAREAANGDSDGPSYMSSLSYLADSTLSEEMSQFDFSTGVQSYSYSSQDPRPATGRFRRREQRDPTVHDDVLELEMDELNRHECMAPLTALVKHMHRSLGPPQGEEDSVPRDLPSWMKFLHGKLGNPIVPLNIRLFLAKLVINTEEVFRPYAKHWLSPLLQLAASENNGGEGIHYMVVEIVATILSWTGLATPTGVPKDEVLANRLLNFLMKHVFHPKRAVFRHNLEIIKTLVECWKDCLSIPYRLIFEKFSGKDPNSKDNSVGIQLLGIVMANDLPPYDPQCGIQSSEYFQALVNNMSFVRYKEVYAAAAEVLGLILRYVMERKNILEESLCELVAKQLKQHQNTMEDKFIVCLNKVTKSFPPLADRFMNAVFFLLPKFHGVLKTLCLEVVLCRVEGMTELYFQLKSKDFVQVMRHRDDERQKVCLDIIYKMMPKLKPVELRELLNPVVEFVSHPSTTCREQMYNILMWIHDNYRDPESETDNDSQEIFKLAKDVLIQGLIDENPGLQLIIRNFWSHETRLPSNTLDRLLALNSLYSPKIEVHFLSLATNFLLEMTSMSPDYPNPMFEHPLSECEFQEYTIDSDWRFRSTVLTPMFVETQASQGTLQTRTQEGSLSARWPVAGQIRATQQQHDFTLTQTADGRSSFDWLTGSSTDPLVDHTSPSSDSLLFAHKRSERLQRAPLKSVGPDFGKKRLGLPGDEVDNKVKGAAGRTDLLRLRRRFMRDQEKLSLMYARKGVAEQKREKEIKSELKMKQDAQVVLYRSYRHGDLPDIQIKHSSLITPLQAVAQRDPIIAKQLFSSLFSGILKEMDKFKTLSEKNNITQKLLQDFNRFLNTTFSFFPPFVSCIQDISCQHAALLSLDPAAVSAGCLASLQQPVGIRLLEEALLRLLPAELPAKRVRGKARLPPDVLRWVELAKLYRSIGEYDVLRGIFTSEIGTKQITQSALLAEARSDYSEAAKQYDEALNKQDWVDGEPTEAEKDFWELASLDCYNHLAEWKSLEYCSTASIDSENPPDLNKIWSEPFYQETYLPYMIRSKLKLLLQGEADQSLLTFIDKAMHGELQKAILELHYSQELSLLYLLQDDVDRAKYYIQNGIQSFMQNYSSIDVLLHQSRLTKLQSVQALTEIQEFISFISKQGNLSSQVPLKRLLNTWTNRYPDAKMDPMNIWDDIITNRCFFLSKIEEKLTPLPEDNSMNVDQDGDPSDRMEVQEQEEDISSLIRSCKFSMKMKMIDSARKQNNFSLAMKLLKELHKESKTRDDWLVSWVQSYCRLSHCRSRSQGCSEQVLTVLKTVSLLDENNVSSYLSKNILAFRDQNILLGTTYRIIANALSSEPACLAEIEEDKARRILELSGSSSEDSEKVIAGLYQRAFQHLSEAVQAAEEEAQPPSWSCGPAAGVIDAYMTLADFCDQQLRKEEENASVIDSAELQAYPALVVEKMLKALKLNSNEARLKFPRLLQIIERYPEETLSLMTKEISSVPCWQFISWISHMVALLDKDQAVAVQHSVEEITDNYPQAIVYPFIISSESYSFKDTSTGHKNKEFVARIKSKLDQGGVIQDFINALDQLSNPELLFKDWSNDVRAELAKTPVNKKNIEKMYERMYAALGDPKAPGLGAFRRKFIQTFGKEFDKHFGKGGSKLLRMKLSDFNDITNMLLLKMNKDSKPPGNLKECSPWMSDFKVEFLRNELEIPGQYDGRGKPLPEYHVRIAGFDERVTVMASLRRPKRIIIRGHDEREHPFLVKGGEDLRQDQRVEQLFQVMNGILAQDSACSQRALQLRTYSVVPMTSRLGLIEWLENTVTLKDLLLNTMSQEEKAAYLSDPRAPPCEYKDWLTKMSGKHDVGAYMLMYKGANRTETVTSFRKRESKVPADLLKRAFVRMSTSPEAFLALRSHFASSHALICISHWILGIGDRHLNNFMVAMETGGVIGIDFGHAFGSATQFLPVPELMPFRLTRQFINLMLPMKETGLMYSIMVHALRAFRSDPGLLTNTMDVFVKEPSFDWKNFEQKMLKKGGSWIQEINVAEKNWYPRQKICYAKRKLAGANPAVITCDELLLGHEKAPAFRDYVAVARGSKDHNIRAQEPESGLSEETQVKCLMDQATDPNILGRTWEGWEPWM", "assay": "Inhibition of human native full length DNA-PK by ADP-Glo assay"}, "HCT-116 [2]": {"system": "HCT-116", "assay": "Antiproliferative activity against human HCT-116 cells assessed as inhibition of cell growth incubated for 48 hrs in presence of 100 nM doxorubicin by MTT assay", "type": "functional, cell-based", "details": "HCT-116, 48 h"}, "MCF7 [3]": {"system": "MCF7", "assay": "Synergistic antiproliferative activity against human MCF7 cells assessed as inhibition of cell growth in presence of 100 nM doxorubicin by MTT assay", "type": "functional, cell-based"}, "HCT-116 [4]": {"system": "HCT-116", "assay": "Induction of apoptosis in human HCT-116 cells assessed as necrotic cells at 1 uM incubated for 24 hrs by AnnexinV-FITC/PI staining based flow cytometry (reference value: 0.031%)", "type": "functional"}, "HL-60 [5]": {"system": "HL-60", "assay": "Synergistic antiproliferative activity against human HL-60 cells assessed as combination index at 0.1 uM in presence of 0.1 uM doxorubicin by MTT assay", "type": "functional"}, "HL-60 [6]": {"system": "HL-60", "assay": "Synergistic antiproliferative activity against human HL-60 cells assessed as combination index at 6.25 uM in presence of 0.1 uM doxorubicin by MTT assay", "type": "functional"}, "HL-60 [7]": {"system": "HL-60", "assay": "Synergistic antiproliferative activity against human HL-60 cells assessed as combination index at 100 uM in presence of 0.1 uM doxorubicin by MTT assay", "type": "functional"}, "HL-60 [8]": {"system": "HL-60", "assay": "Synergistic antiproliferative activity against human HL-60 cells assessed as combination index at 200 uM in presence of 0.1 uM doxorubicin by MTT assay", "type": "functional"}, "MCF7 [9]": {"system": "MCF7", "assay": "Synergistic antiproliferative activity against human MCF7 cells assessed as combination index at 0.5 uM in presence of 0.1 uM doxorubicin by MTT assay", "type": "functional"}, "MCF7 [10]": {"system": "MCF7", "assay": "Synergistic antiproliferative activity against human MCF7 cells assessed as combination index at 1 uM in presence of 0.1 uM doxorubicin by MTT assay", "type": "functional"}, "MDA-MB-231 [11]": {"system": "MDA-MB-231", "assay": "Synergistic antiproliferative activity against human MDA-MB-231 cells assessed as combination index at 3.1 uM in presence of 0.1 uM doxorubicin by MTT assay", "type": "functional"}, "MDA-MB-231 [12]": {"system": "MDA-MB-231", "assay": "Synergistic antiproliferative activity against human MDA-MB-231 cells assessed as combination index at 12.5 uM in presence of 0.1 uM doxorubicin by MTT assay", "type": "functional"}, "HepG2 [13]": {"system": "HepG2", "assay": "Synergistic antiproliferative activity against Doxorubicin-resistant human HepG2 cells assessed as combination index at 1 uM in presence of 0.1 uM doxorubicin by MTT assay", "type": "functional"}, "HepG2 [14]": {"system": "HepG2", "assay": "Synergistic antiproliferative activity against Doxorubicin-resistant human HepG2 cells assessed as combination index at 3.1 uM in presence of 0.1 uM doxorubicin by MTT assay", "type": "functional"}, "HepG2 [15]": {"system": "HepG2", "assay": "Synergistic antiproliferative activity against Doxorubicin-resistant human HepG2 cells assessed as combination index at 25 uM in presence of 0.1 uM doxorubicin by MTT assay", "type": "functional"}, "HepG2 [16]": {"system": "HepG2", "assay": "Synergistic antiproliferative activity against Doxorubicin-resistant human HepG2 cells assessed as combination index at 50 uM in presence of 0.1 uM doxorubicin by MTT assay", "type": "functional"}, "HepG2 [17]": {"system": "HepG2", "assay": "Synergistic antiproliferative activity against Doxorubicin-resistant human HepG2 cells assessed as combination index at 100 uM in presence of 0.1 uM doxorubicin by MTT assay", "type": "functional"}, "HCT-116 [18]": {"system": "HCT-116", "assay": "Induction of cell cycle arrest in human HCT-116 cells assessed as increase in accumulation of cells at G2/M phase at 1 uM incubated for 24 hrs in presence of 100 nM doxorubicin by PI staining based flow cytometry", "type": "functional"}, "HCT-116 [19]": {"system": "HCT-116", "assay": "Inhibition of colony formation in human HCT-116 cells at 1 uM in presence of 100 nM doxorubicin", "type": "functional, cell-based"}, "[20]": {"assay": "Kinetic solubility of the compound in phosphate-buffered solution at pH 6.4 incubated for 24 hrs by HPLC-MS/MS analysis", "type": "physicochemical", "details": "phosphate buffer, read-out: Kinetic_solubility"}, "[21]": {"assay": "Intrinsic clearance in human liver microsomes", "type": "ADME, Microsome", "details": "read-out: CLH"}, "[22]": {"assay": "Half life in human liver microsomes", "type": "ADME, Microsome"}, "[23]": {"assay": "Half life in Sprague-Dawley rat at 5 mg/kg, po", "type": "ADME, organism-based", "details": "in vivo"}, "[24]": {"assay": "Toxicity in BALB/c nude mouse xenografted with human HL-60 cells assessed as effect on body weight at 100 mg/kg, po qd for 16 days", "type": "organism-based", "details": "in vivo, 384 h, time 16 day"}, "[25]": {"assay": "Toxicity in BALB/c nude mouse xenografted with human HL-60 cells assessed as effect on body weight at 100 mg/kg, po qd for 16 days co-administered with doxorubicin", "type": "organism-based", "details": "in vivo, 384 h, time 16 day"}, "[26]": {"assay": "Toxicity in BALB/c nude mouse xenografted with human HL-60 cells assessed as kidney morphological alterations at 100 mg/kg, po qd for 16 days by Hematoxylin and Eosin staining based analysis", "type": "organism-based", "details": "in vivo, 384 h, time 16 day"}, "[27]": {"assay": "Toxicity in BALB/c nude mouse xenografted with human HL-60 cells assessed as heart morphological alterations at 100 mg/kg, po qd for 16 days by Hematoxylin and Eosin staining based analysis", "type": "organism-based", "details": "in vivo, 384 h, time 16 day"}, "[28]": {"assay": "Toxicity in BALB/c nude mouse xenografted with human HL-60 cells assessed as serum WBC content at 100 mg/kg, po qd for 16 days (reference value: 3.8X10^9/L)", "type": "organism-based", "details": "in vivo, 384 h, time 16 day"}, "[29]": {"assay": "Toxicity in BALB/c nude mouse xenografted with human HL-60 cells assessed as serum monocytes content at 100 mg/kg, po qd for 16 days (reference value: 0.5X10^9/L)", "type": "organism-based", "details": "in vivo, 384 h, time 16 day"}, "[30]": {"assay": "Toxicity in BALB/c nude mouse xenografted with human HL-60 cells assessed as serum lymphocytes content at 100 mg/kg, po qd for 16 days (reference value: 75.3%)", "type": "organism-based", "details": "in vivo, 384 h, time 16 day"}, "[31]": {"assay": "Toxicity in BALB/c nude mouse xenografted with human HL-60 cells assessed as serum monocytes content at 100 mg/kg, po qd for 16 days (reference value: 12.2%)", "type": "organism-based", "details": "in vivo, 384 h, time 16 day"}, "[32]": {"assay": "Toxicity in BALB/c nude mouse xenografted with human HL-60 cells assessed as serum RBC content at 100 mg/kg, po qd for 16 days (reference value: 10.375X10^12/L)", "type": "organism-based, Erythrocyte", "details": "in vivo, 384 h, time 16 day"}, "[33]": {"assay": "Toxicity in BALB/c nude mouse xenografted with human HL-60 cells assessed as MCV level at 100 mg/kg, po qd for 16 days (reference value: 57.2 fL)", "type": "organism-based", "details": "in vivo, 384 h, time 16 day"}, "[34]": {"assay": "Toxicity in BALB/c nude mouse xenografted with human HL-60 cells assessed as MCH level at 100 mg/kg, po qd for 16 days (reference value: 14.1 pg)", "type": "organism-based", "details": "in vivo, 384 h, time 16 day"}, "[35]": {"assay": "Toxicity in BALB/c nude mouse xenografted with human HL-60 cells assessed as MCHC level at 100 mg/kg, po qd for 16 days (reference value: 246 g/L)", "type": "organism-based", "details": "in vivo, 384 h, time 16 day"}, "[36]": {"assay": "Toxicity in BALB/c nude mouse xenografted with human HL-60 cells assessed as RDW-CV level at 100 mg/kg, po qd for 16 days (reference value: 14.25%)", "type": "organism-based", "details": "in vivo, 384 h, time 16 day"}, "[37]": {"assay": "Toxicity in BALB/c nude mouse xenografted with human HL-60 cells assessed as platelets level at 100 mg/kg, po qd for 16 days (reference value: 738.5X10^9/L)", "type": "organism-based", "details": "in vivo, 384 h, time 16 day"}, "[38]": {"assay": "Toxicity in BALB/c nude mouse xenografted with human HL-60 cells assessed as MPV level at 100 mg/kg, po qd for 16 days (reference value: 7.55 fL)", "type": "organism-based", "details": "in vivo, 384 h, time 16 day"}}, "note": "Calls of active or inactive are those of the source. The calls are words filed in the database; no cut-off is given here.", "data": [{"compound": "Cc1cc2ncnn2cc1Nc1ncc2c(n1)N(C1CCOCC1)CC(=O)N2C", "values": [{"measurement": "IC50", "setting": "[1]", "result": 0.0008, "unit": "µM"}, {"measurement": "IC50", "setting": "HCT-116 [2]", "result": 17.1, "unit": "µM"}, {"measurement": "Activity", "setting": "MCF7 [3]", "result": "Active"}, {"measurement": "Activity", "setting": "HCT-116 [4]", "result": 0.015, "unit": "%"}, {"measurement": "CI", "setting": "HL-60 [5]", "result": 0.00121}, {"measurement": "CI", "setting": "HL-60 [6]", "result": 0.03585}, {"measurement": "CI", "setting": "HL-60 [7]", "result": 0.551}, {"measurement": "CI", "setting": "HL-60 [8]", "result": 0.9812}, {"measurement": "CI", "setting": "MCF7 [9]", "result": 0.04646}, {"measurement": "CI", "setting": "MCF7 [10]", "result": 0.03832}, {"measurement": "CI", "setting": "MDA-MB-231 [11]", "result": 0.3259}, {"measurement": "CI", "setting": "MDA-MB-231 [12]", "result": 0.474}, {"measurement": "CI", "setting": "HepG2 [13]", "result": 0.011}, {"measurement": "CI", "setting": "HepG2 [14]", "result": 0.02104}, {"measurement": "CI", "setting": "HepG2 [15]", "result": 0.07268}, {"measurement": "CI", "setting": "HepG2 [16]", "result": 0.09496}, {"measurement": "CI", "setting": "HepG2 [17]", "result": 0.1244}, {"measurement": "Activity", "setting": "HCT-116 [18]", "result": 57.27, "unit": "%"}, {"measurement": "inhibition", "setting": "HCT-116 [19]", "result": "Active"}, {"measurement": "solubility kinetic at 24 h", "setting": "[20]", "result": 72.2, "unit": "µg/mL"}, {"measurement": "microsomal CLint", "setting": "[21]", "result": "< 9.6", "unit": "µL/min/mg"}, {"measurement": "half-life", "setting": "[22]", "result": "> 2.42", "unit": "h"}, {"measurement": "half-life", "setting": "[23]", "result": 1.59, "unit": "h"}, {"measurement": "Activity", "setting": "[24]", "result": "Non-Toxic"}, {"measurement": "Activity", "setting": "[25]", "result": "Non-Toxic"}, {"measurement": "Activity", "setting": "[26]", "result": "Non-Toxic"}, {"measurement": "Activity", "setting": "[27]", "result": "Non-Toxic"}, {"measurement": "Activity", "setting": "[28]", "result": "4.35 10^9/L"}, {"measurement": "Activity", "setting": "[29]", "result": "0.51 10^9/L"}, {"measurement": "Activity", "setting": "[30]", "result": 77.25, "unit": "%"}, {"measurement": "Activity", "setting": "[31]", "result": 12.15, "unit": "%"}, {"measurement": "Activity", "setting": "[32]", "result": "10.315 10^12/L"}, {"measurement": "Activity", "setting": "[33]", "result": 56.1, "unit": "fL"}, {"measurement": "Activity", "setting": "[34]", "result": 14.2, "unit": "pg"}, {"measurement": "Activity", "setting": "[35]", "result": 249, "unit": "g/L"}, {"measurement": "Activity", "setting": "[36]", "result": 15, "unit": "%"}, {"measurement": "Activity", "setting": "[37]", "result": "750 10^9/L"}, {"measurement": "Activity", "setting": "[38]", "result": 6.85, "unit": "fL"}]}]}
